Legend:
[1] = target: HLA-A*01:01 (Homo sapiens, UniProt P04439, A114D/A174V/A182V/D101N/D185E/E176A/E190D/L180R/Q94H/R68K/S129P/T187R/V100A/V91M/W191G); assay: In vitro binding of neoantigens to class I MHC (UV peptide exchange, HLA class I ELISA); conditions: 100% = same binding affinity as positive control peptide
Experimental: The 9 mer peptides identified by bioinformatics analysis were analyzed for their binding propensities to 6 common HLA class I alleles (HLA-A*01:01, A*02:01, A*03:01, A*24:02, B*07:02, B*08:01). The principle of the method is briefly described below and consists of two parts, one involving exchange of peptide with a positive control induced by Ultraviolet (UV) radiation, and the second is an enzyme immunoassay to detect stable HLA-peptide and empty HLA complexes.
HLA-bound peptides are critical for the stability of the HLA complex.
The exchange efficiency between the peptide of interest and Pos was analyzed using an HLA class I ELISA. The combined technologies allowed the identification of ligands for an HLA molecule of interest which are potentially immunogenic.
The UV control represented UV-irradiation of conditional HLA class I complex in the absence of a rescue peptide.
The HLA class I ELISA is an enzyme immunoassay based on the detection of beta2-microglobulin (B2M) of (peptide-stabilized) HLA class I complexes. To this end streptavidin was bound onto polystyrene microtiter wells. After washing and blocking, HLA complex present in exchange reaction mixtures or ELISA controls was captured by the streptavidin on the microtiter plate via its biotinylated heavy chain. Non-bound material was removed by washing. Subsequently, horseradish peroxidase (HRP)-conjugated antibody to human B2M was added. […] In the latter case B2M was removed during the washing step. After removal of non-bound HRP conjugate by washing, a substrate solution was added to the wells. A coloured product formed in proportion to the amount of intact HLA complex present in the samples. After the reaction was terminated by the addition of a stop solution, absorbance was measured in a microtiter plate reader. […] Suboptimal HLA binding of peptides with a moderate to low affinity for HLA class I molecules can also be detected by this ELISA technique (Rodenko, B et al. (2006) Nature Protocols 1: 1120-32).
Binding of select neoepitopes to HLA-A*01:01, HLA-A*02:01, HLA-A*03:01, HLA-A*24:02, HLA-B*07:02 and HLA-B*08:01 was evaluated using the assay described in Example 1. […] As a criterion for further evaluation, peptides with an exchange rate of at least […] with the corresponding Pos peptide for at least one of the 6 HLA alleles that we considered for further evaluation. […] Higher percentages correspond to stronger binding to the HLA allele.

[2] = system: autologous CD3+ Pan-T cells (CD8+ and CD4+ T cells) with Ad5-transduced CD1c+ Dendritic Cells; assay: Endogenous autologous normal donor restimulation assay (Ad5-transduced dendritic cells); assay type: cell-based, human; conditions: Table 27, restimulation with overlapping 15-mer peptide pools, maximum across sixteen donors
Experimental: CD1c+ Dendritic Cells (DC) isolated from human normal PBMCs were thawed using media (IMDM (Gibco) supplemented with glutamine, HEPES, 5% human serum (Sigma), and 1× Pen-Strep). DC cells were resuspended in media supplemented with IL-4 (Peprotech, 80 ng/mL) and GM-CSF (Gibco, 80 ng/mL), plated in 6 well microplates, and rested overnight at 37° C. (5% CO2). The following day, DC cells were counted and plated in a 96 well round bottom microplate at a concentration of 30,000 viable cells per well. Ad5 vectors (Vector Biolabs) were dilute in media to an MOI (Multiplicity Of Infection) of 5000 based on Plaque Forming Units. Ad5 vectors for the CEF pool and a “null” were used as controls. DCs were transduced with Ad5 vectors overnight at 37° C. (5% CO2). The following day, the Ad5 vectors were washed off the plate by three sequential centrifugation/aspiration steps using sterile Phosphate Buffered Saline. After the final wash, transduced DCs were resuspended in 100 μL media. Autologous CD3+ Pan-T cells isolated from human normal PBMCs were thawed using media. Pan-T cells were added to the irradiated DCs at 300,000 viable cells per well (100 μL/well). Human IL-15 (Peprotech) was added to all wells at final concentration of 10 ng/mL.
Plates were incubated at 37° C. (5% CO2) for a total of 12 days. Media was refreshed every 2-3 days with IL-15 (10 ng/mL final concentration) and IL-2 (R&D systems, 10 IU/mL final concentration). On day 11 lyophilized peptides (15-mer overlapping peptides) were solubilized in 100% DMSO and pooled by neoantigen to between 5 mg/mL and 20 mg/mL. […]
On day 12, cells were stained for intracellular flow cytometry analysis. […] Cells were washed and resuspended in stain buffer and analyzed using a BD Celesta flow cytometer.
Flow cytometry cell staining analysis was completed using FlowJo v10. […] The CD8+ and CD4+ T cells were analyzed for TNFα/IFNγ expression and the frequency of double positive TNFα/IFNγ CD8+ and the frequency of double positive TNFα/IFNγ CD4+ T cells were recorded. Responses were assessed to be positive when the frequency of double positive TNFα/IFNγ CD8+ or TNFα/IFNγ CD4+ T cells due to stimulation with an experimental peptide pool was increased greater than or equal to 3-fold over the DMSO only negative control for that donor and at least 0.01%.
For three of the neoantigens, an Ad5 vector was designed to transduce normal Dendritic cells with the neoantigens. This assay assessed the ability of the endogenously expressed and presented neoantigens to activate autologous T cells following overlapping 15-mer peptide pools restimulation using the endogenous autologous normal donor restimulation assay described in Example 1 utilizing TNFα and IFNγ production by CD8^+ and CD4^+ T cells as a readout. […]

Question: How did the “Exchange rate with the allele specific Pos peptide, HLA-A*01:01” value [1] turn out when “YEAGMTLGEKFRVGNCKHLKMTRP [Neoantigen P82]” was run?
Answer: 1.5%

Question: Which results are given for “YEAGMTLGGKILFFLFLLLPLSPFSLIF [Neoantigen P87]”?
Answer: Maximum Fold Change Over Background CD4+ cells [2]: 2.41; Maximum Fold Change Over Background CD8+ cells [2]: 2.47; Maximum Frequency of TNFα/IFNγ Double Positive CD4+ T cells [2]: 0.079; Maximum Frequency of TNFα/IFNγ Double Positive CD8+ T cells [2]: 0.39; Exchange rate with the allele specific Pos peptide, HLA-A*01:01 [1]: 1.1%

Question: For SLYHREKQLIAMDSAI [Neoantigen P22], which “Exchange rate with the allele specific Pos peptide, HLA-A*01:01” value [1] is on record?
Answer: 4.4%

— patent US20230035403A1, “Method For Determining Responsiveness To Prostate Cancer Treatment” (Janssen Biotech, Inc., priority 2020, published 2023)
